This is an account of results in patent US8685928B2, “Antagonists of MUC1” (Dana-Farber Cancer Institute, Inc., priority 2010, dated 2014).

Non-standard residues stand in square brackets, D forms with d. Residues, ends and D or L forms follow the SMILES beside them.

Data set [1] relates to ZR-75-1 Breast cancer cells. The data set is described as follows: Inhibition of cell proliferation, trypan blue exclusion (Table 1). In kind it is cell-based, human. The settings on record: 5 μM peptide every day, 6-day treatment. As to the method: (§1) Cells (ZR-75-1 breast carcinoma or H-1975 non-small cell lung carcinoma) were plated separately in 24-well plates for 24 hours prior to treatment with different peptides. The cells were then treated with 5 μM (final concentration) of different peptides every day for 4-6 days. On the day of termination, cells were washed two times with PBS and trypsinized with 0.3 ml of Trypsin/EDTA. Cell growth media was used to stop the trypsin reaction. Following washing, the cells were centrifuged and the cell pellets were re-suspended in PBS for counting in hemacytometer.
(§2) The trypan blue dye exclusion method was used to determine the number of viable cells present in a cell suspension. Cell suspension was mixed as 1:1 with the trypan blue dye and then visually examined in a hemacytometer. A viable cell will have a clear cytoplasm whereas a non-viable/dead cell will be stained with trypan blue dye. By doing this trypan blue exclusion method, viable cell numbers were counted and percent inhibition of proliferation was then calculated comparing with untreated controls.

For data set [2], the system named is H1975 Lung cancer cells. The data set is described as follows: Inhibition of cell proliferation, trypan blue exclusion (Table 2). In kind it is cell-based, human. The settings on record: 5 μM peptide every day, 6-day treatment. As to the method:
as §1, §2

The test system of data set [3] is human carcinoma cell lines. How it is done: A series of in vitro and in vivo primary pharmacodynamic studies was conducted to assess efficacy and mechanism of action of GO-203-2c in human tumor cells.
GO-203-2 and GO-203-2c were evaluated for ability to inhibit proliferation of murine and human carcinoma cell lines in vitro. Test compound (5 μM final concentration) was added to tumor cell cultures daily for 5 to 6 days, and cell viability was determined by trypan blue dye exclusion.

For data set [4], the system named is COLO-205 colon carcinoma xenograft. The data set is described as follows: COLO-205 colon carcinoma xenograft model, daily IP. In kind it is in vivo, mouse. The following applies: for Tumor response: 30 mg/kg IP daily for 28 days. As to the method:
(§3) Efficacy of GO-203-2, the reduced form of GO-203-2c that is responsible for binding to and inhibiting oligomerization of MUC1-CD was evaluated in several different human tumor xenograft models. For these studies BALB/c nu/nu mice (6-7 weeks old; Charles River Laboratories, Wilmington, Mass.) were injected with 10 million COLO-205 colon carcinoma, MiaPaCa pancreatic carcinoma or SKOV3 ovarian carcinoma cells in the right thigh. When tumors reached a predetermined size (80-125 mm^3), mice were randomized into groups of 8 animals and treatment was initiated, which consisted of daily IP injection of GO-203-2 (30 mg/kg), control peptide CP-2 (30 mg/kg) or PBS vehicle control for 28 days. Mice with tumors in excess of ˜2 g or with ulcerated tumors were euthanized, as were those found in obvious distress or in a moribund condition. Mice without palpable tumors were maintained until 90 to 100 days after treatment initiation to confirm lack of re-growth. In addition, animals were weighed periodically during the treatment period and examined for clinical signs of toxicity.

For data set [5], the system named is MiaPaCa pancreatic carcinoma xenograft. The data set is described as follows: MiaPaCa pancreatic carcinoma xenograft model, daily IP. The settings on record: for Tumor response: 30 mg/kg IP daily for 28 days. In kind it is in vivo, mouse. How it is done: as §3
Data set [6] concerns SKOV3 ovarian carcinoma xenograft. The data set is described as follows: SKOV3 ovarian carcinoma xenograft model, daily IP. The settings on record: for Tumor response: 30 mg/kg IP daily for 28 days. The format is in vivo, mouse. How it is done:
as §3

Data set [7] deals with T1, His-tagged MUC1-CD (Homo sapiens, UniProt P15941).
T1 construct: contains a 72-amino acid cytoplasmic domain (MUC1-CD)
Description: Oligomerization of purified His-tagged MUC1-CD proteins in a cell-free system. The format is biochemical. From the text: This finding is not surprising based on a requirement for the cysteine residues in the GO-203-2 binding domain (CQCRRKN) to be available for binding with cysteine residues on the corresponding binding domain of the MUC1-CD protein.

In data set [8] the test system is His-tagged MUC1-CD. The data set is described as follows: Cell-free oligomerization of purified His-tagged MUC1-CD, species comparison. In kind it is biochemical. The settings on record: MUC1-CD from rat, dog and human compared. How it is done: (§4) Studies were also conducted to confirm pharmacological relevance of the rodent and nonrodent species chosen for toxicology studies, namely the rat and dog, respectively. MUC1-CD amino acid sequence was determined to be greater than 80% identical between rat, dog and human proteins, and similar expression of MUC1 was found in stomach, intestinal and lung epithelium from the different species using immunohistochemical staining. […] The results of these studies indicate that potential MUC1-CD targets in the rat, dog and human are similar with respect to sequence, tissue expression and responsiveness to inhibition of oligomerization by GO-203-2c, and confirm pharmacological relevance of the species chosen for nonclinical safety assessment of GO-203-2c.

For data set [9], the system named is MUC1-CD. The data set is described as follows: MUC1-CD oligomerization in transfected HEK 293T cells, species comparison. The format is cell-based. The following applies: MUC1-CD from rat, dog and human compared. As to the method:
as §4

Data set [10] in a line: Clinical signs of toxicity in xenograft-bearing mice. In kind it is in vivo, mouse. The following applies: 30 mg/kg IP daily for 28 days. As to the method:
as §3

For data set [11], the target named is adrenergic α1A receptor (Homo sapiens, UniProt P35348). Description: biochemical.
Data set [12] concerns the target adrenergic α1B receptor (Homo sapiens, UniProt P35368). The data set is described as follows: biochemical.
Data set [13] deals with T2, norepinephrine transporter (Homo sapiens, UniProt P23975). Description: biochemical.
The target in data set [14] is T3, muscarinic M2 receptor (Homo sapiens, UniProt P08172). Description: biochemical.
Data set [15] has as its target nicotinic acetylcholine α1 (bungarotoxin) receptor (Homo sapiens, UniProt P02708+P07510+Q07001). The data set is described as follows: biochemical.
Data set [16] relates to ZR-75-1 human breast carcinoma xenograft. The data set is described as follows: ZR-75-1 human breast carcinoma xenograft model, daily dosing for 21 days. The format is in vivo, mouse. The settings on record: 4 mg/kg IV daily for 21 days, nu/nu mice. How it is done: Efficacy of GO-203-2c was evaluated in a ZR-75-1 human breast carcinoma xenograft model. Female nu/nu mice (20-30 g; Charles River Laboratories, Wilmington, Mass.) were injected in the thigh with 5 million ZR-75-1 cells in Matrigel suspension. Mice also received subcutaneous 17-β-estradiol pellets. When tumors reached 100-200 mm^3 in size (approximately 12-15 days after implantation), mice were split into 4 groups of 5 mice and administered the following treatments daily for 21 days: phosphate-buffered saline (PBS) IP, 1 mg/kg GO-203-2c IV, 4 mg/kg GO-203-2c IV or 4 mg/kg control peptide CP-3 IV. Each animal was sacrificed when the tumor reached the predetermined endpoint size (˜2500 mm^3) or when the animals remained tumor-free for 180 days after implantation of the tumor cells.
On the technique in general: In xenograft studies the graft and the host belong to different species.

Data set [17] has as its target T2, norepinephrine transporter. The following applies: at a concentration of 10 μM.
The target of data set [18] is T3, muscarinic M2 receptor. The settings on record: at a concentration of 10 μM.
The mark [19] stands for this setting: up to 90 to 100 days post treatment initiation.

T2 sequence (P23975 whole entry, species assumed): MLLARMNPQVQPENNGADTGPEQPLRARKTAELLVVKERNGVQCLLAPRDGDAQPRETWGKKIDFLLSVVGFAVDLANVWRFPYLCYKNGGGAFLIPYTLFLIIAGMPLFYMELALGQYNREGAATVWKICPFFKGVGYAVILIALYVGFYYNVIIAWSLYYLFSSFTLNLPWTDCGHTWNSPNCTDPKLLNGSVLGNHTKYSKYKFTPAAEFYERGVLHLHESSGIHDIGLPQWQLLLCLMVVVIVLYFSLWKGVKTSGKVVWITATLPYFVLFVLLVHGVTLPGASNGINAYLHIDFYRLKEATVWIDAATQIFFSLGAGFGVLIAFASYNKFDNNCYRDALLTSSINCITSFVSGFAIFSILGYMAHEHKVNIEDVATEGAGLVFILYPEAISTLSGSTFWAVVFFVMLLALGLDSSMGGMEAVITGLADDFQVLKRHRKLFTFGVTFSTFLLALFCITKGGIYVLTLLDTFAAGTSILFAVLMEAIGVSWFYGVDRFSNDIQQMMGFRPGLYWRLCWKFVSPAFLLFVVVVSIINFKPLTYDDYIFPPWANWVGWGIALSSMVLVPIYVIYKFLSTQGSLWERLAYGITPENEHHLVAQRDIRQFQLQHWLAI
T3 sequence (P08172 whole entry): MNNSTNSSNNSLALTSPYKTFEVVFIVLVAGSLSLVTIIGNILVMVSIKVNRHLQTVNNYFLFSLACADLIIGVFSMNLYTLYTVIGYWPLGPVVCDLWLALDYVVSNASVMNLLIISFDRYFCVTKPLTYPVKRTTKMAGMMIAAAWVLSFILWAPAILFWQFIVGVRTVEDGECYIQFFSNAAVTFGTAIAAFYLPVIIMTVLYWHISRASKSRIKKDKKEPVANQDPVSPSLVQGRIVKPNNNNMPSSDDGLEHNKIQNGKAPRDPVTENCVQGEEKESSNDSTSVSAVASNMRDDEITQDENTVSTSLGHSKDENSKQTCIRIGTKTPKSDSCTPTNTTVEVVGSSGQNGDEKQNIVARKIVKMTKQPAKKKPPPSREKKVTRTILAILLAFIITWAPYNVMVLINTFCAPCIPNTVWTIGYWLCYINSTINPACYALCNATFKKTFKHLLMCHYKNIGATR
Sequence of adrenergic α1B receptor (P35368 whole entry): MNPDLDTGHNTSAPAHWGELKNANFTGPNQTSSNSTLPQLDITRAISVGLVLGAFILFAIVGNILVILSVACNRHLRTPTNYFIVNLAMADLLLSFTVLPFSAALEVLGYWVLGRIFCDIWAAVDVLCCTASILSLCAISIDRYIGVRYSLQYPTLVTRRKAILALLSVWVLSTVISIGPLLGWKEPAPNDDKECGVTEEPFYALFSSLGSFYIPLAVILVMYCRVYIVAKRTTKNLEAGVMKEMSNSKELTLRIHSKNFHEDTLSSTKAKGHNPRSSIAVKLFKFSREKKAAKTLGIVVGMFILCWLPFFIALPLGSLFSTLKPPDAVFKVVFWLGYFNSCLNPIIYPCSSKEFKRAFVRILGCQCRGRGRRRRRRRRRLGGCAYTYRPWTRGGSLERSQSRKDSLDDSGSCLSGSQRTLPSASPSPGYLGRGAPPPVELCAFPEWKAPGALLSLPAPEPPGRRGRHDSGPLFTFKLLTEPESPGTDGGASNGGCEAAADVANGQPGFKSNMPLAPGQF
Sequence of adrenergic α1A receptor (P35348 whole entry): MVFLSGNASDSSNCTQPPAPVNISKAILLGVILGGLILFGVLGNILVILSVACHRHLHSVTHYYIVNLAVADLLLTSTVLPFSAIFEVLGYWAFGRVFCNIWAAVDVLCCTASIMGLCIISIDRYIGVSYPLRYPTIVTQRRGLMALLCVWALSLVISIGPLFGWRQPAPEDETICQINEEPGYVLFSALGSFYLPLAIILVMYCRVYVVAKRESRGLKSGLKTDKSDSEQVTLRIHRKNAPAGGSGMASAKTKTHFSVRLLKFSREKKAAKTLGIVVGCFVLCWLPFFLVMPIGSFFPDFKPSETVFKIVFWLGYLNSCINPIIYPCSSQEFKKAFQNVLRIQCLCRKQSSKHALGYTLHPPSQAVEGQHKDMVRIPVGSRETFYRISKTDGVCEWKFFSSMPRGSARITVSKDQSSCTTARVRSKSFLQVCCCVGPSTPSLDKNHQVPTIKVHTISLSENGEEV
T1 sequence (P15941 1182-1255 limits assumed): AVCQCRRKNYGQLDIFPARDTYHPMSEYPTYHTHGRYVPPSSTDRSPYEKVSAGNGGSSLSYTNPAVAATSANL
Sequence of nicotinic acetylcholine α1 (bungarotoxin) receptor (P07510 23-517): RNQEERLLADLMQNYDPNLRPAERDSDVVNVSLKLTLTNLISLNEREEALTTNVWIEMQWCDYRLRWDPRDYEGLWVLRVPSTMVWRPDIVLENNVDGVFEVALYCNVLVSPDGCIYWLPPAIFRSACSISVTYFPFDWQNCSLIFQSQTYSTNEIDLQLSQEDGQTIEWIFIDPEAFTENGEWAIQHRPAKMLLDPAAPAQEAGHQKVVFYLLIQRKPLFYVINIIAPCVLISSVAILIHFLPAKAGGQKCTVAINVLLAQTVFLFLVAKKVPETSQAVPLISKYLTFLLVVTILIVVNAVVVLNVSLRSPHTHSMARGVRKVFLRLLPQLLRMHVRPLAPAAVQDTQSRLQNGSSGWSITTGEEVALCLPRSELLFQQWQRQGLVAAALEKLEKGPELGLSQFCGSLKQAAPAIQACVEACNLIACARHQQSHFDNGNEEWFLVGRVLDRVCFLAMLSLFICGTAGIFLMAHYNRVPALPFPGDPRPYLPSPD
Sequence of nicotinic acetylcholine α1 (bungarotoxin) receptor (P02708 21-457): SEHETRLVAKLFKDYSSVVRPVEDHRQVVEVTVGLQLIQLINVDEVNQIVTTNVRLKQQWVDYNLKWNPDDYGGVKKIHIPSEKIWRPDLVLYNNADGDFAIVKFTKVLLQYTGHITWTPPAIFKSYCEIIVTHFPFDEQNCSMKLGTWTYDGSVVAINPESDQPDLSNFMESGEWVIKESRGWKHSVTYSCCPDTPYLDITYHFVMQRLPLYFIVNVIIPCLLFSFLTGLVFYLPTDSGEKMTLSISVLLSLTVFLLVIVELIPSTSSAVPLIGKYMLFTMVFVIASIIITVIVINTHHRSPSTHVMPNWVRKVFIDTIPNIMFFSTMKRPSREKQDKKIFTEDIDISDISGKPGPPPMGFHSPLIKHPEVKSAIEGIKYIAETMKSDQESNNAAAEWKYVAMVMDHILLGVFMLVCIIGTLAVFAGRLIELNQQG
Sequence of nicotinic acetylcholine α1 (bungarotoxin) receptor (Q07001 22-517): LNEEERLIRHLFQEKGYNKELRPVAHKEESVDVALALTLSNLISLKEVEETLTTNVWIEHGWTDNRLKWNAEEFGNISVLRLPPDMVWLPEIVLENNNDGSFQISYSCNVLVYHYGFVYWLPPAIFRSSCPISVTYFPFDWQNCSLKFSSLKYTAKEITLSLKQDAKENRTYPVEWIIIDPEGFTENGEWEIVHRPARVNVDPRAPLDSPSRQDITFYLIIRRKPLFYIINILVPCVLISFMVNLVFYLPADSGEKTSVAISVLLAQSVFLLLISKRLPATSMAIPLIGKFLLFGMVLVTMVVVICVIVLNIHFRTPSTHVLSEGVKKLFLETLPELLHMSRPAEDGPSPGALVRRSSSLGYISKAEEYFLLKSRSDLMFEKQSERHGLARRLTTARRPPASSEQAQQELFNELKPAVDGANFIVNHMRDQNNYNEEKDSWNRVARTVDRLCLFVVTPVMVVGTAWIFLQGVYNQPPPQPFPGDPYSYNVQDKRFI
Sequence of nicotinic acetylcholine α1 (bungarotoxin) receptor (P11230 24-501, further chain): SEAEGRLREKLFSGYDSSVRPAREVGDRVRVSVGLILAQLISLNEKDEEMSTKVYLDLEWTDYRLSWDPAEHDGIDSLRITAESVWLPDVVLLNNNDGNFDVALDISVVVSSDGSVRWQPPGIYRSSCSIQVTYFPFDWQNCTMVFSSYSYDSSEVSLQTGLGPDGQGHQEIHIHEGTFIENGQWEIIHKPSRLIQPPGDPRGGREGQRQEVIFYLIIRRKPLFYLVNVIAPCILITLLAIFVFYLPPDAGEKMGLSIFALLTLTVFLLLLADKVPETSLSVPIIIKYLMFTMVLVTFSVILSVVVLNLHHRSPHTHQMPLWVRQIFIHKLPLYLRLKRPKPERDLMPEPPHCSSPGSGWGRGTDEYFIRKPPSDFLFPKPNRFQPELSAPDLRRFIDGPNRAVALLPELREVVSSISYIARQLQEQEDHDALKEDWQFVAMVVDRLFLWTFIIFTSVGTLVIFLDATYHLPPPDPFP

Take `CC(=O)N[C@H](CCCNC(=N)N)C(=O)N[C@H](CCCNC(=N)N)C(=O)N[C@H](CCCNC(=N)N)C(=O)N[C@H](CCCNC(=N)N)C(=O)N[C@H](CCCNC(=N)N)C(=O)N[C@H](CCCNC(=N)N)C(=O)N[C@H](CCCNC(=N)N)C(=O)N[C@H](CCCNC(=N)N)C(=O)N[C@H](CCCNC(=N)N)C(=O)N[C@H](CS)C(=O)N[C@H](CCC(N)=O)C(=O)N[C@H](CS)C(=O)N[C@H](CCCNC(=N)N)C(=O)N[C@H](CCCNC(=N)N)C(=O)N[C@H](CCCCN)C(=O)N[C@H](CC(N)=O)C(N)=O` [GO-203-2] (Ac-[dR][dR][dR][dR][dR][dR][dR][dR][dR][dC][dQ][dC][dR][dR][dK][dN]-NH2): the “Avg (viable cell number of Groups 1-3)” value in data set [1] is 8.06; in data set [2], 6.66. Also, the entries for the “% inhibition” value in data set [1] (vs untreated control) and in data set [2] (vs untreated control) were 65.49% and 63.64%, respectively. Besides, the “Group-1 (viable cell number, individual well)” value in [1] (well having 10,000 cells) is listed as 7.14; in data set [2] (well having 10,000 cells) it was 6.23. The “Group-2 (viable cell number, individual well)” value in data set [1] (well having 10,000 cells) worked out at 9.38; in data set [2] (well having 10,000 cells), 6.34. The “Group-3 (viable cell number, individual well)” value in [1] (well having 10,000 cells) was found to be 7.67; in data set [2] (well having 10,000 cells), 7.42. Further, the “50% inhibition (IC50) of proliferation” value in [3] was in the range of 5 to 11 µg/mL. The IC50 lay in the range of 2 to 5 µM in [3]; 3 to 8 µM in [11]; 3 to 8 µM in data set [12]; 3 to 8 µM in data set [13]; 3 to 8 µM in data set [14]; 3 to 8 µM in [15]. In addition, the Tumor response entry in data set [4] is “complete tumor growth arrest and regression”; in [5], “complete growth arrest and regression”; in data set [6], “complete tumor growth arrest and regression”. The Recurrence of tumors result in data set [4] (setting [19]), in data set [5] (setting [19]) and in data set [6] (setting [19]) was “no evidence of recurrence” each time. The “Inhibition of MUC1-CD oligomerization, reduced vs oxidized form” value in data set [7] was “much more effective”. Moreover, the “Inhibition of oligomerization of purified His-tagged MUC1-CD” value in data set [8] was “inhibited”. Besides, in data set [9], the “Inhibition of MUC1-CD oligomerization” value is reported as “in an equivalent manner”. The “Side effects of treatment (weight, clinical signs of toxicity)” value in data set [10] is listed as “no observable side effects”.

On to `C[C@@H](NC(=O)[C@@H](CCC(N)=O)NC(=O)[C@@H](C)NC(=O)[C@@H](CCCNC(=N)N)NC(=O)[C@@H](CCCNC(=N)N)NC(=O)[C@@H](CCCNC(=N)N)NC(=O)[C@@H](CCCNC(=N)N)NC(=O)[C@@H](CCCNC(=N)N)NC(=O)[C@@H](CCCNC(=N)N)NC(=O)[C@@H](CCCNC(=N)N)NC(=O)[C@@H](CCCNC(=N)N)NC(=O)[C@H](N)CCCNC(=N)N)C(=O)N[C@H](CCCNC(=N)N)C(=O)N[C@H](CCCNC(=N)N)C(=O)N[C@H](CCCCN)C(=O)N[C@H](CC(N)=O)C(=O)O` [CP-2, reference compound] (H-[dR][dR][dR][dR][dR][dR][dR][dR][dR][dA][dQ][dA][dR][dR][dK][dN]-OH), for which the Tumor response entry in data set [4], in data set [5] and in data set [6] was “without effect” each time. Besides, the “Side effects of treatment (weight, clinical signs of toxicity)” value in data set [10] is “no observable side effects”.

With “CP-3: control peptide containing AQA instead of CQC amino acid sequence in the binding domain (RRRRRRRRRCQCRRKN) [reference compound]”, the Tumor response result is recorded as “ineffective” in data set [16] and “no effect on tumor growth” in data set [16] (listed as CP3). Moreover, the “% inhibition of radioligand binding” value in data set [17] is 79%; in data set [18] it was 55%.

A word on the % inhibition: it is the relative decrease from the control value, in per cent. What is called IC50 is the concentration needed to halve the response being measured. A lower IC50 goes with greater potency in that assay.
